The values that follow come from patent US20250059179A1, “Heterocyclic Compounds and Methods of Use” (AMGEN INC., priority 2021, published 2025).

Test [1] has as its target His-tagged KRAS G12D protein (Homo sapiens, UniProt P01116, G12D). Nature of the test: KRAS G12D TR-FRET Assay.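 Further: europium anti-His antibody paired with streptavidin-d2 as FRET partners, initial 30 min incubation, then peptide 1 h and detection reagents 1 h, all at room temperature.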 The test is classed as binding. The conditions noted are these: biotinylated KRPep-2d substrate, 10 μM GDP.
The target of test [2] is GDP-bound KRAS protein (aa 1-169), containing both G12D and C118A amino acid substitutions (Homo sapiens, UniProt P01116, C118A/G12D). The test can be described thus: KRAS G12D Coupled Nucleotide Exchange Assay.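 Further: IC50 obtained by fitting the AlphaScreen signal with a four-parameter logistic curve.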 The conditions noted are these: 2 h compound pre-incubation; SOS-mediated nucleotide exchange, cRAF AlphaScreen readout. The test is classed as biochemical.
GDP-bound KRAS protein (aa 1-169), containing both G12D and C118A amino acid substitutions, sequence (P01116 1-169 isoform P01116-2 G12D/C118A): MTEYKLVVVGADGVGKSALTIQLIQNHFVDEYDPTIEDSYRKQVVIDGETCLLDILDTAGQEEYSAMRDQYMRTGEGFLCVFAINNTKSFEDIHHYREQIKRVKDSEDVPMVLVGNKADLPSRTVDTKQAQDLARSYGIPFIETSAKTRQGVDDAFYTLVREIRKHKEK
Test [3] has as its system Phosphorylation of ERK1/2 in A-427 cells. The test can be described thus: Phospho-ERK1/2 MSD Assay. It counts as cell-based. To be noted: 2 h compound treatment, read-out: pERK (A427 cells) IC50. The essentials: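 ERK1/2 phosphorylation measured by Meso Scale whole-cell lysate assay after A-427 cells were exposed to a titration of compound for 2 h at 37 °C.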

Molecules are shown by their SMILES. Where two headings read alike, the source gives them in different places.

His-tagged KRAS G12D protein, sequence (P01116 1-188 isoform P01116-2 G12D): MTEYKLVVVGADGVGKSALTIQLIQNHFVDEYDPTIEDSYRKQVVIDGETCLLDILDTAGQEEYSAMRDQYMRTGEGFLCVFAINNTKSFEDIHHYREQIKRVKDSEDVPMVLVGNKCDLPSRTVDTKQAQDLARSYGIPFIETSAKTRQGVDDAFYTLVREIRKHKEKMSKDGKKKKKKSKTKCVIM

Turning to `C=Cc1cc2c(N3C[C@H]4CC[C@@H](C3)N4)nc(OC[C@@]34CCCN3C[C@H](F)C4)nc2c(F)c1-c1ccc(F)c2sc(N)nc12` [Example 150, 4-(4-((1R,5S)-3,8-diazabicyclo[3.2.1]octan-3-yl)-8-fluoro-2-(((2R,7aS)-2-fluorotetrahydro-1H-pyrrolizin-7a(5H)-yl)methoxy)-6-vinylquinazolin-7-yl)-7-fluorobenzo[d]thiazol-2-amine], the IC50 came out at 3 nM in test [1] and 11 nM in test [3] (Homo sapiens, A-427, 2 h). Moreover, the “Avg 2 h Coupled Exchange IC50” value in test [2] stood at 6 nM.

On to `CN1C[C@H](F)C[C@H]1COc1nc(N2[C@@H]3CC[C@H]2CNC3)c2cc(Cl)c(-c3ccc(F)c4sc(N)nc34)c(F)c2n1` [Example 3, 4-(4-((1R,5S)-3,8-diazabicyclo[3.2.1]octan-8-yl)-6-chloro-8-fluoro-2-(((2S,4R)-4-fluoro-1-methylpyrrolidin-2-yl)methoxy)quinazolin-7-yl)-7-fluorobenzo[d] thiazol-2-amine], for which the IC50 turned out to be 6 nM in test [1] and 194 nM in test [3] (Homo sapiens, A-427, 2 h). Besides, the “Avg 2 h Coupled Exchange IC50” value in test [2] came out at 5 nM.

For the molecule `CCc1cc2c(N3C[C@H]4CC[C@@H](C3)N4)nc(OC[C@@]34CCCN3C[C@H](F)C4)nc2c(F)c1-c1ccc(F)c2sc(N)nc12` [Example 153, 4-(4-((1R,5S)-3,8-diazabicyclo[3.2.1]octan-3-yl)-6-ethyl-8-fluoro-2-(((2R,7aS)-2-fluorotetrahydro-1H-pyrrolizin-7a(5H)-yl)methoxy)quinazolin-7-yl)-7-fluorobenzo[d]thiazol-2-amine], the IC50 in test [1] worked out at 4 nM; in test [3] (Homo sapiens, A-427, 2 h), 11 nM. For the same molecule, the “Avg 2 h Coupled Exchange IC50” value in test [2] was 6 nM.

Regarding `CN1CCC[C@H]1COc1nc(N2CC3CC(C2)N3)c2cc(Cl)c(-c3cccc4sc(N)nc34)c(F)c2n1` [Example 5, 4-(4-(3,6-diazabicyclo[3.1.1]heptan-3-yl)-6-chloro-8-fluoro-2-(((S)-1-methylpyrrolidin-2-yl)methoxy)quinazolin-7-yl)benzo[d]thiazol-2-amine], the IC50 in test [1] was determined as 10 nM; in test [3] (Homo sapiens, A-427, 2 h) it was 2630 nM. Moreover, in test [2], the “Avg 2 h Coupled Exchange IC50” value turned out to be 5 nM.

As to `Nc1nc2c(-c3c(Cl)cc4c(N5C[C@H]6CC[C@@H](C5)N6)nc(OC[C@@]56CCCN5C[C@H](F)C6)nc4c3F)ccc(F)c2s1` [Example 137, 4-(4-((1R,5S)-3,8-diazabicyclo[3.2.1]octan-3-yl)-6-chloro-8-fluoro-2-(((2R,7aS)-2-fluorotetrahydro-1H-pyrrolizin-7a(5H)-yl)methoxy)quinazolin-7-yl)-7-fluorobenzo[d]thiazol-2-amine], the half-maximal inhibitory concentration (IC50) in test [1] turned out to be 3 nM; in test [3] (Homo sapiens, A-427, 2 h) it was 8 nM. For the same molecule, the “Avg 2 h Coupled Exchange IC50” value in test [2] came out at 2 nM.

Consider `CN1CCC[C@H]1COc1nc(N2CCCNCCC2)c2cc(Cl)c(-c3cccc4sc(N)nc34)c(F)c2n1` [Example 35, 4-(6-chloro-4-(1,5-diazocan-1-yl)-8-fluoro-2-(((S)-1-methylpyrrolidin-2-yl)methoxy)quinazolin-7-yl)benzo[d]thiazol-2-amine], for which the IC50 was 336 nM in test [1] and more than 10000 nM in test [3] (Homo sapiens, A-427, 2 h). In addition, in test [2], the “Avg 2 h Coupled Exchange IC50” value came to 65 nM.

In the case of `Nc1nc2c(-c3c(Cl)cc4c(N5CCCNC(=O)C5)nc(OC[C@@]56CCCN5C[C@H](F)C6)nc4c3F)ccc(F)c2s1` [Example 4, 4-(7-(2-amino-7-fluorobenzo[d]thiazol-4-yl)-6-chloro-8-fluoro-2-(((2R,7aS)-2-fluorotetrahydro-1H-pyrrolizin-7a(5H)-yl)methoxy)quinazolin-4-yl)-1,4-diazepan-2-one], the IC50 in test [1] was found to be 10 nM; in test [3] (Homo sapiens, A-427, 2 h) it was 4900 nM. The “Avg 2 h Coupled Exchange IC50” value in test [2] came to 5 nM.

Regarding `CN1CCC[C@H]1COc1nc2c(F)c(-c3cccc4sc(N)nc34)c(Cl)cc2c(N2CCNCC2)c1C#N` [Example 158, 7-(2-aminobenzo[d]thiazol-4-yl)-6-chloro-8-fluoro-2-(((S)-1-methylpyrrolidin-2-yl)methoxy)-4-(piperazin-1-yl)quinoline-3-carbonitrile], the IC50 is 414 nM in test [1] and 3290 nM in test [3] (Homo sapiens, A-427, 2 h). Moreover, in test [2], the “Avg 2 h Coupled Exchange IC50” value is 87 nM.

Regarding `Nc1nc2c(-c3c(Cl)cc4c(N5C[C@H]6CC[C@@H](C5)N6)cc(OC[C@@]56CCCN5C[C@H](F)C6)nc4c3F)ccc(F)c2s1` [Example 161, 4-(4-((1R,5S)-3,8-Diazabicyclo[3.2.1]octan-3-yl)-6-chloro-8-fluoro-2-(((2R,7aS)-2-fluorotetrahydro-1H-pyrrolizin-7a(5H)-yl)methoxy)quinolin-7-yl)-7-fluorobenzo[d]thiazol-2-amine], the IC50 worked out at 57 nM in test [1] and 5790 nM in test [3] (Homo sapiens, A-427, 2 h). Moreover, the “Avg 2 h Coupled Exchange IC50” value in test [2] came to 24 nM.

With `CN1CCC[C@H]1COc1nc(C2=CCNC2)c2cc(Cl)c(-c3cccc4sc(N)nc34)c(F)c2n1` [Example 148, 4-(6-chloro-4-(2,5-dihydro-1H-pyrrol-3-yl)-8-fluoro-2-(((S)-1-methylpyrrolidin-2-yl)methoxy)quinazolin-7-yl)benzo[d]thiazol-2-amine], the IC50 in test [1] came out at 56 nM; in test [3] (Homo sapiens, A-427, 2 h), 3410 nM. The “Avg 2 h Coupled Exchange IC50” value in test [2] stood at 74 nM.

Regarding `Nc1nc2c(-c3c(Cl)cc4c(N5C[C@@H]6CC[C@H]5CN6)nc(OC[C@@]56CCCN5C[C@H](F)C6)nc4c3F)ccc(F)c2s1` [Example 38, 4-(4-((15,4S)-2,5-diazabicyclo[2.2.2]octan-2-yl)-6-chloro-8-fluoro-2-(((2R,7aS)-2-fluorotetrahydro-1H-pyrrolizin-7a(5H)-yl)methoxy)quinazolin-7-yl)-7-fluorobenzo[d] thiazol-2-amine], the IC50 in test [1] is 6 nM; in test [3] (Homo sapiens, A-427, 2 h), 1090 nM. Also, in test [2], the “Avg 2 h Coupled Exchange IC50” value was determined as 13 nM.

For the molecule `CCc1cc2c(N3[C@@H]4CC[C@H]3CNC4)nc(OC[C@@]34CCCN3C[C@H](F)C4)nc2c(F)c1-c1ccc(F)c2sc(N)nc12` [Example 154, 4-(4-((1R,5S)-3,8-diazabicyclo[3.2.1]octan-8-yl)-6-ethyl-8-fluoro-2-(((2R,7aS)-2-fluorotetrahydro-1H-pyrrolizin-7a(5H)-yl)methoxy)quinazolin-7-yl)-7-fluorobenzo[d]thiazol-2-amine], the IC50 in test [1] worked out at 4 nM; in test [3] (Homo sapiens, A-427, 2 h), 55 nM. The “Avg 2 h Coupled Exchange IC50” value in test [2] amounted to 4 nM.

`Nc1nc2c(-c3c(Cl)cc4c(N5C[C@H]6C[C@@H](C5)N6)nc(OCC56CCCN5CC(F)(F)C6)nc4c3F)ccc(F)c2s1` (stereo partly drawn) [Example 14, 4-(4-((1R,5S)-3,6-diazabicyclo[3.1.1]heptan-3-yl)-6-chloro-2-((2,2-difluorotetrahydro-1H-pyrrolizin-7a(5H)-yl)methoxy)-8-fluoroquinazolin-7-yl)-7-fluorobenzo[d] thiazol-2-amine]: the IC50 in test [1] came to 12 nM; in test [3] (Homo sapiens, A-427, 2 h) it was 1500 nM. Also, the “Avg 2 h Coupled Exchange IC50” value in test [2] came to 14 nM.

`C[C@]1(COc2nc(N3CCNCC3)c3cc(Cl)c(-c4cccc5sc(N)nc45)c(F)c3n2)CCCN1` [Example 74, 4-(6-chloro-8-fluoro-2-(((R)-2-methyl-pyrrolidin-2-yl)methoxy)-4-(piperazin-1-yl)quinazolin-7-yl)benzo[d] thiazol-2-amine]: the IC50 in test [1] is 228 nM; in test [3] (Homo sapiens, A-427, 2 h), more than 10000 nM. For the same molecule, in test [2], the “Avg 2 h Coupled Exchange IC50” value is 122 nM.

As for `Nc1nc2c(-c3c(Cl)cc4c(N5CCCNCC5)nc(OC[C@@]56CCCN5C[C@H](F)C6)nc4c3F)ccc(F)c2s1` [Example 28, 4-(6-chloro-4-(1,4-diazepan-1-yl)-8-fluoro-2-(((2R,7aS)-2-fluorotetrahydro-1H-pyrrolizin-7a(5H)-yl)methoxy)quinazolin-7-yl)-7-fluorobenzo[d] thiazol-2-amine], the IC50 in test [1] amounted to 8 nM; in test [3] (Homo sapiens, A-427, 2 h) it was 2300 nM. For the same molecule, in test [2], the “Avg 2 h Coupled Exchange IC50” value amounted to 3 nM.

As to `Nc1nc2c(-c3c(Cl)cc4c(N5CC6CNCC5C6)nc(OC[C@@]56CCCN5C[C@H](F)C6)nc4c3F)ccc(F)c2s1` (single isomer, unassigned) [Example 30], the IC50 in test [1] is 96 nM; in test [3], 7910 nM. Also, the “Avg 2 h Coupled Exchange IC50” value in test [2] turned out to be 15 nM.

`C[C@@]1(COc2nc(N3CCNCC3)c3cc(Cl)c(-c4cccc5sc(N)nc45)c(F)c3n2)CCCN1` [Example 73, 4-(6-chloro-8-fluoro-2-(((S)-2-methyl-pyrrolidin-2-yl)methoxy)-4-(piperazin-1-yl)quinazolin-7-yl)benzo[d] thiazol-2-amine]: the IC50 in test [1] is 60 nM; in test [3] (Homo sapiens, A-427, 2 h) it was more than 10000 nM. The “Avg 2 h Coupled Exchange IC50” value in test [2] came to 36 nM.

Regarding `Nc1nc2c(-c3c(Cl)cc4c(N5[C@@H]6CNC[C@H]5COC6)nc(OC[C@]56CCCN5C[C@H](F)C6)nc4c3F)ccc(F)c2s1` [Example 124, 4-(4-((1R,5S)-3-oxa-7,9-diazabicyclo[3.3.1]nonan-9-yl)-6-chloro-8-fluoro-2-(((2R,7aR)-2-fluorotetrahydro-1H-pyrrolizin-7a(5H)-yl)methoxy)quinazolin-7-yl)-7-fluorobenzo[d]thiazol-2-amine], the concentration for half-maximal inhibition (IC50) in test [1] worked out at 7 nM; in test [3] (Homo sapiens, A-427, 2 h), 287 nM. Besides, the “Avg 2 h Coupled Exchange IC50” value in test [2] is 6 nM.

For the molecule `CN1CC[C@@H](COc2nc(N3CCNCC3)c3cc(Cl)c(-c4cccc5sc(N)nc45)c(F)c3n2)C1` [Example 53, 4-(6-chloro-8-fluoro-2-(((R)-1-methyl-pyrrolidin-3-yl)methoxy)-4-(piperazin-1-yl)quinazolin-7-yl)benzo[d] thiazol-2-amine], the half-maximal inhibitory concentration (IC50) in test [1] is 414 nM; in test [3] (Homo sapiens, A-427, 2 h), more than 25000 nM. In addition, in test [2], the “Avg 2 h Coupled Exchange IC50” value stood at 75 nM.

What is called IC50 is the point on the concentration scale where inhibition reaches its midpoint.
